The values below are quoted from earlier work in patent US6767550B1, “Hydroxyapatite based drug delivery implant for cancer treatment” (Berkeley Advanced Biomaterials, Inc., priority 2000, dated 2004).

The conditions of data set [1]: cumulative dose of 700 mg.m^2.
For data set [2] the following is noted: 30 mg/m^2 intravenous bolus dose; 2.5 hours after administration.
The conditions of data set [3]: in vivo.

Regarding `COc1cccc2c1C(=O)c1c(O)c3c(c(O)c1C2=O)C[C@@](O)(C(=O)CO)C[C@@H]3O[C@H]1C[C@H](N)[C@H](O)[C@H](C)O1` [doxorubicin], in data set [1], the patients experiencing cardiotoxicity is 30-40%. The marro drug concentration in data set [2] was 0.52 µg/g. Also, the oral absorption entry in data set [3] is on record as “poor oral absorption”.
